{"source": "patent US20040033982A1", "about": "“Viral inhibition by n-docosanol” (priority 2001, published 2004)", "key": {"Friend Virus": {"system": "Friend Virus", "assay": "Friend Virus replication in primary embryo fibroblast cultures", "type": "cell-based"}, "HSV-2": {"system": "HSV-2", "assay": "Fusion of octadecyl rhodamine B chloride-labeled HSV-2 with NC-37 human B cells", "type": "cell-based", "method": "NC-37 human B cells were inoculated in the presence of 15 mM n-docosanol, the corresponding concentration of Tetronic 908 (0.1 mM) or without addition. Cells were harvested and R-18-labeled HSV-2 was added to aliquots in the presence of compounds at their original concentration. Following incubation at 37° C. for the times indicated, cells were fixed and fluorescence intensity determined by FACScan.\nThe HSV envelope was labeled with octadecyl rhodamine B chloride (R-18). NC-37 human B cells were inoculated at 2.5×10^5 cells/ml, 25 ml per flask. Cells were incubated overnight at 37° C. with no addition or in the presence of 15 mM n-docosanol or the corresponding concentration of Tetronic 908. […] Fluorescence intensity was measured by using a fluorescence-activated cell sorter (FACScan; Becton-Dickinson).\nBecause of the selectivity of the inhibitory effects of n-docosanol for lipid-enveloped fusion-dependent viruses and the absence of viricidal effects, we considered the possibility that n-docosanol may inhibit viral entry by altering target cell membranes to prevent effective fusion of viral particles with target cells. To investigate the effects of n-docosanol on HSV fusion with cellular membranes we conducted fluorescence dequenching assays. […] This relieves fluorescence self-quenching and causes an increase in signal intensity."}, "Vero cells": {"system": "Vero cells", "assay": "Cellular uptake, distribution and metabolism of radiolabeled n-docosanol", "type": "in vitro ADME, African Green monkey", "method": "FIG. 10 depicts data showing that radioactive metabolites of n-[^14C]docosanol display the properties of phosphatidylcholine and phosphatidylethanolamine. A portion (0.5 ml) of the methanol eluate of the silica lipid fractionation was evaporated under nitrogen, resuspended in 20 μl chloroform:methanol (3:2; v:v) and spotted on a silica thin layer chromatography (TLC) sheet. After development with chloroform:methanol:acetic acid:water (60:50:1:4; v:v:v:v), the positions of standards were determined by staining with iodine vapors and the cpm per fraction determined by scintillation spectrometry after cutting the plastic-backed sheet into 5 mm strips.\nFIG. 11 depicts data showing that n-[^14C]-Docosanol is metabolized more by Vero cells than by MDBK cells. Vero or MDBK cells were plated as described. n-[^14C]-docosanol was added to […] (0.24 mM Tetronic 908) and the cultures were incubated 72 hours at 37° C./CO2. Cells were extracted and analyzed on TLC with hexane:diethyl ether:acetic acid (20:30:1; v:vv) as the developing solvent. With this solvent system the polar phosphatides remain at the origin. The position of migration of n-[^14C]-docosanol is indicated. Duplicate plates were treated with an identical suspension lacking the radioactive label, and the numbers of cells in these duplicate plates were determined by counting cells excluding trypan blue with a hemocytometer.\nIn order to better define the precise mechanism by which n-docosanol exerts its antiviral activity, the cellular uptake, distribution, and metabolism of n-docosanol from surfactant-stabilized suspensions has been studied. The results of such studies have provided some interesting insight into the metabolic basis of the compound's antiviral action. It has been shown that radioactively labeled n-docosanol is progressively incorporated into cultured Vero cells, reaching a peak uptake per cell between 6 and 12 hours after exposure. The process is irreversible, since once the compound is cell-associated it cannot be removed even with extensive washing with cesium bromide, which effectively removes nonspecifically associated cell-bound particles.\nNonmetabolized n-docosanol was previously eluted from the silica with chloroform. As shown, approximately 62% of the counts migrated in the region of phosphatidylcholine and 38% migrated in the region of phosphatidylethanolamine.\nOf the counts that are metabolized in two cells lines, the relative amounts in the major classes of phosphatides that are formed, phosphatidylcholine and phosphatidylethanolamine, are not different in the two cell lines."}, "HIV-1": {"system": "HIV-1", "assay": "HIV-1 replication in PHA/IL-2-stimulated peripheral blood mononuclear cells (p24 ELISA)", "type": "cell-based, human", "settings": "4 days after inoculation", "method": "FIG. 13 depicts data showing that n-docosanol inhibits in vitro replication of HIV-1 in cultures of PHA/IL-2-stimulated human peripheral blood mononuclear cells. Human peripheral blood mononuclear cells were cultured in medium containing 1 μg/ml PHA plus 5 units/ml IL-2 alone or also containing 100 μg/ml PFA, the indicated dosage of n-docosanol/Pluronic F68, or the amount of Pluronic F-68 control vehicle contained in the high dose of n-docosanol/Pluronic F-68. After overnight incubation, the cultures were inoculated with HIV-1 at a multiplicity of infection of 1 virion/cell. After 24 hours incubation at 37° C., the cultures were washed and inoculated with fresh medium containing PHA and IL-2, but lacking inhibitor. Replication of HIV-1 was determined 4 days later by quantitation of viral antigens by a p24-specific ELISA for HIV-1.\nThe initial studies on HIV were conducted in collaboration with a U.S. National Institutes of Health Laboratory and one of several experiments of this type is summarized in FIG. 13. Normal human peripheral blood mononuclear cells were activated with 1 μg/ml PHA plus 5 units/ml of IL-2 in medium alone or in the presence of n-docosanol, Pluronic […] control vehicle, or phosphonformic acid (PFA). The next day, the cultures were inoculated with HIV-1 and examined 4 days later for evidence of viral replication by detection of the p24 viral antigen."}, "wild-type HSV-2": {"system": "wild-type HSV-2", "assay": "Plaque formation by wild-type HSV-2 in Vero cells", "type": "cell-based", "settings": "FIG. 7, Panel A", "method": "FIG. 7 depicts data showing that n-docosanol inhibits acyclovir-resistant HSV-2. Vero cells were cultured in 35-mm wells (6×10^5 cells per well) in medium alone (=none) or in the presence of the indicated concentration of acyclovir, n-docosanol-Pluronic F-68 suspension or control suspension (Pluronic F-68 only). The cultures were inoculated 24 hours later with 150 PFU of either wild-type HSV-2 or an acyclovir-resistant laboratory isolate from the wild-type HSV-2 that was plaque purified and passaged in 20 μg/ml acyclovir 44 hours later, the plates were incubated, fixed, stained, and scored for numbers of plaques. The data presented are means of plaques scored from duplicate cultures. The percent inhibition observed in cultures treated with acyclovir or n-docosanol relative to untreated control cultures is denoted in parentheses."}, "[1]": {"settings": "saturating concentrations, within 24 hours"}}, "note": "Entries after “also recorded” stand apart in the source; their conditions may differ. Where two headings read alike, the source gives them in different places."}
{"smiles": "CCCCCCCCCCCCCCCCCCCCCCO", "note": "[n-docosanol]", "values": [{"measurement": "activity against replication of Friend Virus", "setting": "Friend Virus", "value": "very potent activity"}, {"measurement": "inhibition at 15000 µM", "setting": "HSV-2; Human alphaherpesvirus 2, NC-37, read-out: inhibition of fluorescent response compared to Tetronic control", "value": "≤ 76", "unit": "%"}, {"measurement": "inhibition at 15000 µM", "setting": "HSV-2; Human alphaherpesvirus 2, NC-37, read-out: inhibition of relative increase in fluorescence intensity compared to cells receiving no treatment", "value": "~50", "unit": "%"}, {"measurement": "total uptake and relative metabolic conversion, Vero versus MDBK cells", "setting": "Vero cells", "value": "3-4 times higher"}, {"measurement": "radioactive compound associated with nuclear fractions", "setting": "Vero cells; after 12 hours of exposure", "value": "less than 1%"}, {"measurement": "radioactive compound contained in cell membranes", "setting": "Vero cells; after 12 hours of exposure", "value": 75, "unit": "%"}, {"measurement": "molecules of n-docosanol added to culture that enter the cell", "setting": "Vero cells; radiolabeled n-docosanol", "value": "less than 1 out of 1000"}, {"measurement": "cell-associated amount", "setting": "Vero cells; [1]", "value": "~8×10^9 molecules per cell"}, {"measurement": "fraction of total n-docosanol added that becomes cell-associated", "setting": "Vero cells; [1]", "value": "less than 1%"}, {"measurement": "inhibitory activity against HIV-1 (p24 viral antigen)", "setting": "HIV-1", "value": "dose-related inhibitory activity; also recorded: comparable to that observed with the very potent antiviral compound, phosphonoformic acid (PFA)"}, {"measurement": "inhibition of plaque formation", "setting": "wild-type HSV-2", "value": "inhibit plaque formation by wild type HSV-2 equally"}]}
